Experimental data as given in ChEMBL document CHEMBL4118137, “Design, synthesis and antineoplastic activity of novel hybrids of podophyllotoxin and indirubin against human leukaemia cancer cells as multifunctional anti-MDR agents” (Bioorg Med Chem Lett, 2018).

Experiments:
K562/VCR = assay: Antiproliferative activity against human K562/VCR cells after 72 hrs by CCK8 assay; format: functional, cell-based
K562 = assay: Antiproliferative activity against human K562 cells after 72 hrs by CCK8 assay; format: functional, cell-based; conditions: K562, 72 h
HL-60 = assay: Cytotoxicity against human HL60 cells; format: functional, cell-based
K562/Adr = assay: Antiproliferative activity against human K562/ADR cells after 72 hrs by CCK8 assay; format: functional, cell-based
[1] = Resistance factor, ratio of IC50 for human K562/VCR cells to IC50 for human K562 cells; format: functional

Row | SMILES | IC50 (K562/VCR) | IC50 (K562) | IC50 (HL-60) | IC50 (K562/Adr) | Ratio IC50 [1]
1 | O=C1Nc2ccccc2/C1=C1/Nc2ccccc2C1=O [INDIRUBIN] | > 100 µM | > 100 µM | – | – | –
2 | CN(C)CCN1C(=O)/C(=C2\Nc3ccccc3C2=O)c2ccccc21 | – | – | 3.56 µM | – | –
3 | COc1cc([C@@H]2c3cc4c(cc3[C@H](OC(=O)CN3C(=O)C(=O)c5c(Br)cccc53)[C@H]3COC(=O)[C@H]23)OCO4)cc(OC)c1OC | – | – | – | 0.067 µM | –
4 | COc1cc([C@@H]2c3cc4c(cc3[C@H](OC(=O)CCN3C(=O)/C(=C5\Nc6ccccc6C5=O)c5ccccc53)[C@H]3COC(=O)[C@H]23)OCO4)cc(OC)c1OC | 2.14 µM | 1.3 µM | – | – | 1.64
5 | COc1cc([C@@H]2c3cc4c(cc3[C@H](OC(=O)CCCCCN3C(=O)/C(=C5\Nc6ccccc6C5=O)c5ccccc53)[C@H]3COC(=O)[C@H]23)OCO4)cc(OC)c1OC | 85.7 µM | 17.1 µM | – | – | 5.02
